Test results taken from patent US20090131513A1, “ANTI-INFLAMMATORY MODALITIES” (Novogen Research Pty Ltd., priority 2005, published 2009).

Legend:
[1] = system: eicosanoid synthesis by the inflamed colon; test: PGE2 and TXB2 production by cultured colons from DSS colitis mice (Experiment 4); assay type: in vivo
Procedure: Groups of mice (n=5) were dosed once daily with Compound 11 mg/kg or vehicle throughout the experiment, and killed either on day 6, 9 or 13. Colons were removed, opened longitudinally and washed in PBS with pen/strep (100 U/ml/100 μg/ml, Invitrogen) with added fungizone (2.5 ug/ml, Invitrogen). They were then cut into small portions and approximately 100 mg colon was placed into one well of a 24-well plate either in the presence or absence of ConA (10 μg/ml, Sigma) containing 1 ml modified RPMIc (pen/strep and fungizone as above) for 18-24 hours. Supernatant was collected, centrifuged and stored at −80° C. PGE2 and TXB2 in the culture supernatants were measured in triplicate by ELISA (Cayman Chemical).

[2] = system: contractile response of the aortic ring to noradrenaline; test: Vasodilatory activity in the rat aortic ring assay; parameters: species or system rat (Sprague-Dawley); settings: test compound 1 μg/ml
Procedure: The vasodilatory capacity of test compounds was examined ex vivo using the rat aortic ring assay.
Male Sprague-Dawley rats (250±50 g) were euthanized with 80% CO2 and 20% O2. The thoracic aorta was excised and quickly mounted in organ-baths as described (Chin-Dusting et al. 2001). Full concentration-contractile curves were obtained to noradrenaline ([…]) with and without test compounds delivered at a concentration of 1 μg/ml. Experiments were repeated in n=5 different rings from 5 different animals. Only one compound at any one concentration was tested on any one ring from any one animal. Sigmoidal dose response curves were fitted for the data and the logEC50 calculated (Prism 4, GraphPad Software). The difference in these values between the presence and absence of test compound was calculated using a two-tailed paired t test. The effects of β-oestrodiol and vehicle alone were examined as a positive and negative control respectively.

## O=C1c2ccc(O)c(Br)c2OCC1c1ccc(O)cc1 (stereo not shown) [Compound 1, 3-(4-hydroxyphenyl)-7-hydroxy-8-bromo-chroman-4-one]
[1]; ConA 10 μg/ml
  PGE2 and TXB2 responses of colons cultured in the presence of ConA: reduce these responses, although not significantly so
[1]; cultured in the absence of mitogenic stimulation, day 6 and day 9 (p<0.05)
  TXB2 production by colons versus DSS + vehicle: less TXB2
[1]; cultured in the absence of mitogenic stimulation, day 9 and day 13
  PGE2 production by colons versus DSS + vehicle: less PGE2
[2]
  contractile response (logEC50) of the aortic ring to noradrenaline compared with vehicle: significantly inhibited
